One series has as its system MCF-7 cells. The series is described as follows: Clonogenic assay with X-ray irradiation. Type of series: cell-based. On the procedure: MCF-7 cells were plated at a rate of 50,000 cells/ml in a 24-well cell culture plate. They were then incubated with DOX, DOX-DNA, and DOX-DNA-AuNPs for 12 hours, and then irritated with 0, 2, 5, and 10 Gy X-rays. The cells were then counted, using a hemocytometer, and replated in a 6 well plate at 1000 cell per well for the 0 and 2 Gy dose; 3000 cells for the 5 Gy; and 9000 for the 10 Gy. The plates were incubated for 14 days, and then fixed with gluteraldhyde and stained with crystal violet. The colonies with 50 or more cells were then counted.

Series [1] can be described thus: X-ray radiation cleavage of 6-FAM labelled DNA, fluorescence spectroscopy, with DMSO as hydroxyl radical scavenger. Type of series: physicochemical. As to conditions: 100 Gy. On the procedure:
X-ray radiation studies were performed, using DMSO as a hydroxyl radical scavenger at concentrations from 0-100 mM. In a 24-well plate, 400 μL of purified 6-FAM-DNA-AuNPs were mixed with 400 μL of 2×DMSO solution, or PBS and the samples were irradiated with X-rays. After radiation, the AuNPs were removed from solution by centrifugation (13,000 rpm, 15 min) and supernatant fluorescence was measured (Excitation at 490 nm and Emission at 514 nm). Non-radiated controls were identically prepared and measured.
6-FAM has a high fluorescence yield (>80%) and high quenching when attached to AuNPs. The cleavage via X-ray irradiation was studied with optical fluorescence spectroscopy.
Black Hole Quencher®-1 DNA, coupled to 6-FAM, was purchased from IDT (6-FAM-5′-[…]-3′-BHQ-1®). It was irradiated with DMSO at concentrations from 0-100 mM in 24 well plates, and the fluorescence from cleaved DNA was measured. […] X-ray radiated and cleaved 6-FAM molecules were incubated with MCF-7 cells for 4 hours.

We go through two compounds from US9993553B2, “Methods and compositions for targeted release of molecules from nanoscale carriers” (The Regents of the University of California, priority 2013, dated 2018).

{6-FAM} = 6-carboxyfluorescein dye; {BHQ-1} = Black Hole Quencher-1

Regarding `COc1cccc2c1C(=O)c1c(O)c3c(c(O)c1C2=O)C[C@@](O)(C(=O)CO)C[C@@H]3O[C@H]1C[C@H](N)[C@H](O)[C@H](C)O1` [DOX, doxorubicin], the Measured cell survivability with MCF-7 cells (0 Gy) is 0.81 ± .01; in the series on MCF-7 cells (2 Gy), 0.61 ± .05; in the series on MCF-7 cells (5 Gy) it was 0.28 ± .02; in the series with MCF-7 cells (10 Gy) it was 0.07 ± .002. Also, the “Survivability of MCF-7 cells” value in the series with MCF-7 cells (DOX alone, no radiation) amounted to 80%. Moreover, in the series on MCF-7 cells (DOX alone, no radiation, 24 million free DOX in the cell), the “Toxicity to MCF-7 cells” value is “about 20%”.

On to “6-FAM-5′-TTAGGGTTAGGG-3′-BHQ-1® (DNA, 5' {6-FAM}, 3' {BHQ-1}, backbone not given here) [Q-DNA-6-FAM, Black Hole Quencher-1 DNA coupled to 6-FAM, purchased from IDT]”, for which the “Effect of DMSO (hydroxyl radical scavenger) on cleavage / fluorescence” value in series [1] (DMSO up to 100 mM) was “significantly reduced the fluorescence”. Further, the “Cleavage after X-ray radiation” value in series [1] (zero DMSO) worked out at 25%. The “Cleavage (fluorescence) after X-ray radiation in the presence of AuNPs” value in series [1] (zero DMSO, mixture with AuNPs, no covalent conjugation) came out at 4%.
